Measurements as given in patent US7060824B2, “Pyrrolotriazolopyrimidinone derivatives” (Almirall Prodesfarma, S.A., priority 2000, dated 2006).
pIC50: −log10 of the molar value.

What follows are molecules tested against T1, cyclic GMP specific phosphodiesterase (PDE 5) (Homo sapiens, UniProt O76074) (assay: PDE 5 inhibition, enzyme isolated from human platelet lysates, [3H]-cyclic GMP substrate). Conditions: enzyme from human platelet lysates (Mono-Q); 0.25 mM [3H]-cyclic GMP as substrate; read-out: IC50 PDE5.
T1 construct: was isolated from human platelet lysates by ion exchange chromatography using a Mono-Q column; from tissue; host or cells: human platelets (lysate, Mono-Q ion exchange fraction)
Format: biochemical
Experimental: The cyclic GMP specific phosphodiesterase (PEE 5) was isolated from human platelet lysates by ion exchange chromatography using a Mono-Q column. The enzyme activity was determined using 0.25 mM [3H]-cyclic GMP as substrate. The purification of the enzyme and the assessment of the PDE 5 inhibitory activity of our compounds were performed essentially as described by Gristwood et al., Br. J. Pharmacol. 1992, 105, 985–991.

| pIC50 | SMILES |
| --- | --- |
| 10.00 | CCCn1c(=O)n2cnnc2c2[nH]c(-c3cc(S(=O)(=O)N4CCCN(C)CC4)ccc3OCC)c(Cl)c21 [Example 11, 7-Chloro-8-[2-ethoxy-5-(4-methyl-[1,4]diazepane-1-sulfonyl)phenyl]-6-propyl-6,9-dihydro-5H-pyrrolo[2,3-e][1,2,4]triazolo[4,3-c]pyrimidine-5-one] |
| 10.38 | CCCn1c(=O)n2cnnc2c2[nH]c(-c3cc(S(=O)(=O)N4CCN(CCOCC)CC4)ccc3OCC)c(Cl)c21 [Example 24, 7-Chloro-8-{2-ethoxy-5-[4-(2-ethoxyethyl)piperazine-1-sulfonyl]phenyl}-6-propyl-6,9-dihydro-5H-pyrrolo[2,3-e][1,2,4]triazolo[4,3-c]pyrimidine-5-one] |
| 9.66 | CCCOc1ccc(S(=O)(=O)N2CCN(CCCO)CC2)cc1-c1[nH]c2c(c1Cl)n(CCC)c(=O)n1cnnc21 [Example 34, 7-Chloro-8-{5-[4-(3-hydroxypropyl)piperazine-1-sulfonyl)-2-propoxyphenyl]-6-propyl-6,9-dihydro-5H-pyrrolo[2,3-e][1,2,4]triazolo[4,3-c]pyrimidine-5-one] |
| 9.77 | CCCOc1ccc(S(=O)(=O)NC2CC(C)(C)NC(C)(C)C2)cc1-c1[nH]c2c(c1Cl)n(CCC)c(=O)n1cnnc21 [Example 41, 3-(7-Chloro-5-oxo-6-propyl-6,9-dihydro-5H-pyrrolo[2,3-e][1,2,4]triazolo[4,3-c]pyrimidin-8-yl)-4-propoxy-N-(2,2,6,6-tetramethylpiperidin-4-yl)benzenesulfonamide] |
| 9.68 | C=CCN1CCN(S(=O)(=O)c2ccc(OCCC)c(-c3[nH]c4c(c3Cl)n(CCC)c(=O)n3cnnc43)c2)CC1 [Example 45, 8-[5-(4-Allylpiperazine-1-sulfonyl)-2-propoxyphenyl]-7-chloro-6-propyl-6,9-dihydro-5H-pyrrolo[2,3-e][1,2,4]triazolo[4,3-c]pyrimidine-5-one] |
| 9.82 | CCCOc1ccc(S(=O)(=O)NCCO)cc1-c1[nH]c2c(c1Cl)n(CCC)c(=O)n1cnnc21 [Example 50, 3-(7-Chloro-5-oxo-6-propyl-6,9-dihydro-5H-pyrrolo[2,3-e][1,2,4]triazolo[4,3-c]pyrimidin-8-yl)-N-(2-hydroxyethyl)-4-propoxybenzenesulfonamide] |
| 9.52 | CCCOc1ccc(S(=O)(=O)N2CCN(C)CC2)cc1-c1[nH]c2c(c1Br)n(CCC)c(=O)n1cnnc21 [Example 58, 7-Bromo-8-[5-(4-methylpiperazine-1-sulfonyl)-2-propoxyphenyl]-6-propyl-6,9-dihydro-5H-pyrrolo[2,3-e][1,2,4]triazolo[4,3-c]pyrimidine-5-one] |
| 9.92 | CCCOc1ccc(S(=O)(=O)N2CCCN(CCO)CC2)cc1-c1[nH]c2c(c1Br)n(CCC)c(=O)n1cnnc21 [Example 71, 7-Bromo-8-(5-[4-(2-Hydroxyethyl)-[1,4]diazepane-1-sulfonyl]-2-propoxyphenyl}-6-propyl-6,9-dihydro-5H-pyrrolo[2,3-e][1,2,4]triazolo[4,3-c]pyrimidine-5-one] |
| 9.48 | CCCOc1ccc(S(=O)(=O)N2CCN(CCO)CC2)cc1-c1[nH]c2c(c1Br)n(CCC)c(=O)n1cnnc21 [Example 73, 7-Bromo-8-{5-[4-(2-hydroxyethyl)piperazine-1-sulfonyl]-2-propoxyphenyl}-6-propyl-6,9-dihydro-5H-pyrrolo[2,3-e][1,2,4]triazolo[4,3-c]pyrimidine-5-one] |
| 9.60 | CCCOc1ccc(S(=O)(=O)N2CCNCC2)cc1-c1[nH]c2c(c1Br)n(CCC)c(=O)n1cnnc21 [Example 74, 7-Bromo-8-[5-(piperazine-1-sulfonyl)-2-propoxyphenyl]-6-propyl-6,9-dihydro-5H-pyrrolo[2,3-e][1,2,4]triazolo[4,3-c]pyrimidine-5-one] |
| 9.72 | CCCn1c(=O)n2cnnc2c2[nH]c(-c3cc(S(=O)(=O)N4CCN5CCC[C@H]5C4)ccc3OCC)c(Cl)c21 [Example 75, 7-Chloro-8-[2-ethoxy-5-((S)-hexahydropyrrolo[1,2-a]pyrazine-2-sulfonyl)phenyl]-6-propyl-6,9-dihydro-5H-pyrrolo[2,3-e][1,2,4]triazolo[4,3-c]pyrimidine-5-one] |
| 9.72 | CCCn1c(=O)n2cnnc2c2[nH]c(-c3cc(S(=O)(=O)N4C[C@@H]5C[C@H]4CN5C)ccc3OCC)c(Cl)c21 [Example 79, 7-Chloro-8-[2-ethoxy-5-((1S, 4S)-5-methyl-2,5-diazabicyclo[2.2.1]heptane-2-sulfonyl)phenyl]-6-propyl-6,9-dihydro-5H-pyrrolo[2,3-e][1,2,4]triazolo[4,3-c]pyrimidine-5-one] |
